The results in this text go back to patent publication US20090036473A1, “NOVEL QUINAZOLINONE DERIVATIVES AND THEIR MEDICAL USE” (priority 2006, published 2009).

The target in this assay is T1, human Kv72+3 channels (Homo sapiens, UniProt O43525+O43526).
T1 construct: expressed in transfected cells; host or cells: CHO K1 cells, stably expressing
Description: patch-clamp set-up using CHO K1 cell lines stably expressing the human Kv72+3 channels. The conditions noted are these: at a concentration of 3 μM, CHO K1 cells stably expressing human Kv72+3 channels. The class given is cell-based. The procedure: For example, at a concentration of 3 μM, Compound A4 induces an increase in current amplitude in the order 190%, which is an indication of its potent Kv72+3 activating activity.

Regarding `CC(C)c1nc2ccccc2c(=O)n1NC(=O)[C@@H]1C[C@H]1c1ccccc1` (relative stereo) [Compound A4, (Trans)-2-Phenyl-cyclopropanecarboxylic acid (2-isopropyl-4-oxo-4H-quinazolin-3-yl)-amide], the “increase in current amplitude” value is recorded as about 190%.
